From PMC5078989, “Targeted inhibition of the COP9 signalosome for treatment of cancer” (Nature Communications, 2016) come the findings set out here.

Common to all, as to assay type: biochemical
The target in one assay is T1, human ADAM17 (Homo sapiens, UniProt P78536).
T1 construct: human ADAM17 (Uniprot P78536), amino acids 1–670; made in house; host or cells: insect cells (baculovirus)
The experiment in a line: Selectivity assay ADAM17. How it is done: (§1) All biochemical assays were performed at room temperature in 384-well plates in a total volume of 25.25 μl per well. Test compounds were dissolved in 90% (v/v) DMSO/water. For the assays, 250 nl of compound solution was added per well, followed by addition of 12.5 μl protease solution. After 70 min of pre-incubation at room temperature, the reactions were started by addition of 12.5 μl substrate solution and followed either by measuring fluorescence intensity (rhodamine 110-based substrates) or by fluorescence lifetime (PT14-based substrates). The effect of compound on enzymatic activity was obtained from the linear part of the progress curves and determined after 1 h (t=60 min). The final compound concentrations ranged from 100 μM to 1 nM.
(§2) Matrix metalloproteinases. Human MMP1 (Uniprot P03956), amino acids 1–469, expressed in and purified from stable transfected C127 cells; human MMP2 (Uniprot P08253), amino acids 1–660, expressed in and purified from insect cells (baculovirus expression system); human MMP8 (Uniprot P22894), amino acids 100–262, expressed in and purified from E. coli; human MMP9 (Uniprot P14780), amino acids 1–707, expressed in and purified from stable transfected 293 cells; human MMP12 (Uniprot P39900), amino acids 101–268, expressed in and purified from E. coli; human MMP13 (Uniprot P45452), amino acids 103–274, expressed in and purified from E. coli; human MMP14 (Uniprot P50281), amino acids 112–284, expressed in and purified from E. coli; human ADAM17 (Uniprot P78536), amino acids 1–670, expressed in and purified from insect cells (baculovirus expression system); substrate: Ac-C(PT14)-[…]-NH2 purchased from Biosyntan (product number 8069); enzyme concentrations: 3 nM (MMP1), 1 nM (MMP2), 3 nM (MMP8), 0.1 nM (MMP9), 0.5 nM (MMP12), 0.13 nM (MMP13), 0.005 nM (MMP14), 30 nM (ADAM17); substrate concentration: 0.8 μM; assay buffer: 100 mM Tris, pH 7.4, 100 mM NaCl, 10 mM CaCl2, 10 μM ZnCl2, 0.075% (v/v) Brij35.

For another assay, the target named is T2, human MMP12 (Homo sapiens, UniProt P39900).
T2 construct: human MMP12 (Uniprot P39900), amino acids 101–268; made in house; host or cells: E. coli
Briefly: Selectivity assay MMP12. How it is done:
as §1, §2

A further assay addresses T3, human MMP2 (Homo sapiens, UniProt P08253).
T3 construct: human MMP2 (Uniprot P08253), amino acids 1–660; made in house; host or cells: insect cells (baculovirus)
T3 sequence (P08253 30-660): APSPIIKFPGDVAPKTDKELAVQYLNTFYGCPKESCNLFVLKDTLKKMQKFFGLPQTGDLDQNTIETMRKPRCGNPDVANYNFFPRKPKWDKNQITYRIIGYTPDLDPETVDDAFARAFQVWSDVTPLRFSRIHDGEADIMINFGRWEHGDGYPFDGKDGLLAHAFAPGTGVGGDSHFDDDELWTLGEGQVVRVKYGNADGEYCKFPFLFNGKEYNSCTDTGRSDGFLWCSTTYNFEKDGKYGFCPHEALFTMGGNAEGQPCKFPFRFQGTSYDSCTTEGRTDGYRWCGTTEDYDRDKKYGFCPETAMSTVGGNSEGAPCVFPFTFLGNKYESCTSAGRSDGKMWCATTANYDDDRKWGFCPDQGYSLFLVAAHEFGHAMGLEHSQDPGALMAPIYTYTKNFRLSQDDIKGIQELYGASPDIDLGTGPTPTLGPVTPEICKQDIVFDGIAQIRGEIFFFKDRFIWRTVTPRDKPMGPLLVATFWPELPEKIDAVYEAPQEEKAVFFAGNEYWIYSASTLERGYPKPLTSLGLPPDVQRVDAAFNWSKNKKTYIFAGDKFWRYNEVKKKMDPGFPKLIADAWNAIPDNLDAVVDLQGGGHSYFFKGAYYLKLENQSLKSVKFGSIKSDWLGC
The experiment in a line: Selectivity assay MMP2. The protocol: as §1, §2

The target in a further assay is T4, human MMP13 (Homo sapiens, UniProt P45452).
T4 construct: human MMP13 (Uniprot P45452), amino acids 103–274; made in house; host or cells: E. coli
The experiment in a line: Selectivity assay MMP13. The protocol: as §1, §2

Another assay concerns the target T5, human MMP14 (Homo sapiens, UniProt P50281).
T5 construct: human MMP14 (Uniprot P50281), amino acids 112–284; made in house; host or cells: E. coli
Briefly: Selectivity assay MMP14. How it is done:
as §1, §2

Another assay concerns the target T6, CSN5 (Homo sapiens, UniProt Q92905).
T6 construct: made in house; host or cells: Sf21 insect cells, co-infection of separate baculoviruses
The experiment in a line: CSN5 activity assay (CSN deneddylation, fluorescence polarization). The conditions noted are these: JAMM domain protease; means±s.d. How it is done:
Unlike the majority of proteases, it is not active as an individual subunit or as an isolated catalytic domain. […] For the identification of CSN inhibitors, we therefore conducted a high-throughput screening campaign using a biochemical assay with recombinant CSN and a fluorescence-labelled and NEDD8-modified CRL substrate[30][40] (PT22-NEDD8-SCF^Skp2; Supplementary Table 1).
The potency of CSN5 inhibitors was determined in a CSN activity assay using changes in fluorescence polarization as the readout. Reactions were carried out at room temperature in 384-well plates. […] The effect of compound on enzymatic activity was determined from the linear part of the progression curves by an end-point measurement of the fluorescence polarization at 590 nm after excitation at 540 nm using a PHERAstar plate reader (BMG LABTECH GmbH). IC50 values were calculated from the plot of percentage of inhibition versus inhibitor concentration using the non-linear regression analysis software Origin 7.5SR6 (OriginLab Corp.).

The target in another assay is T7, human MMP9 (Homo sapiens, UniProt P14780).
T7 construct: human MMP9 (Uniprot P14780), amino acids 1–707; made in house; host or cells: stably transfected 293 cells
Briefly: Selectivity assay MMP9. The protocol: as §1, §2

The target of another assay is T8, human MMP8 (Homo sapiens, UniProt P22894).
T8 construct: human MMP8 (Uniprot P22894), amino acids 100–262; made in house; host or cells: E. coli
Briefly: Selectivity assay MMP8. How it is done:
as §1, §2

The target in another assay is T9, Human AMSHLP (Homo sapiens, UniProt Q96FJ0).
T9 construct: made in house; host or cells: E. coli
T9 sequence (Q96FJ0 1-436): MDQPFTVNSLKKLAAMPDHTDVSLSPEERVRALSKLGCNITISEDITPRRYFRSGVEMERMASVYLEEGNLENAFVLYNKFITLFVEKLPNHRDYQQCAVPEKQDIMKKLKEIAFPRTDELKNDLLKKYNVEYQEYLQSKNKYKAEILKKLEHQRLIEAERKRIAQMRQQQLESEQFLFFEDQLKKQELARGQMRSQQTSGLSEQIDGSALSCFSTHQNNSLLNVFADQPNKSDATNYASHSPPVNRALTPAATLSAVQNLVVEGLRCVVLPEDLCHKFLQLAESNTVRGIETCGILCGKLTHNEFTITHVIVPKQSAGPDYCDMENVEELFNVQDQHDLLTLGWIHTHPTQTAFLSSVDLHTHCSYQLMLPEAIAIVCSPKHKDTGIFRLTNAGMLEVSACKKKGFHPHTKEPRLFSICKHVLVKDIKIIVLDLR
The experiment in a line: Selectivity assay AMSHLP (ubiquitin-rhodamine110-glycine substrate). The conditions noted are these: JAMM domain protease. The protocol:
as §1
Human AMSHLP. Enzyme was expressed in and purified from E. coli; substrate: ubiquitin-rhodamine110-glycine was purchased from emp Biotech GmbH (Berlin, Germany; product number AS 09/12-A4); enzyme concentration: 4 nM; substrate concentration: 200 nM; assay buffer: 100 mM Tris/HCl at pH 7.5, 10 mM CaCl2, 100 mM NaCl, 10 μM ZnCl2, 0.005% (v/v) BRIJ 35 and 5 mM dithioerythritol (DTE).

T7 sequence (P14780 20-707): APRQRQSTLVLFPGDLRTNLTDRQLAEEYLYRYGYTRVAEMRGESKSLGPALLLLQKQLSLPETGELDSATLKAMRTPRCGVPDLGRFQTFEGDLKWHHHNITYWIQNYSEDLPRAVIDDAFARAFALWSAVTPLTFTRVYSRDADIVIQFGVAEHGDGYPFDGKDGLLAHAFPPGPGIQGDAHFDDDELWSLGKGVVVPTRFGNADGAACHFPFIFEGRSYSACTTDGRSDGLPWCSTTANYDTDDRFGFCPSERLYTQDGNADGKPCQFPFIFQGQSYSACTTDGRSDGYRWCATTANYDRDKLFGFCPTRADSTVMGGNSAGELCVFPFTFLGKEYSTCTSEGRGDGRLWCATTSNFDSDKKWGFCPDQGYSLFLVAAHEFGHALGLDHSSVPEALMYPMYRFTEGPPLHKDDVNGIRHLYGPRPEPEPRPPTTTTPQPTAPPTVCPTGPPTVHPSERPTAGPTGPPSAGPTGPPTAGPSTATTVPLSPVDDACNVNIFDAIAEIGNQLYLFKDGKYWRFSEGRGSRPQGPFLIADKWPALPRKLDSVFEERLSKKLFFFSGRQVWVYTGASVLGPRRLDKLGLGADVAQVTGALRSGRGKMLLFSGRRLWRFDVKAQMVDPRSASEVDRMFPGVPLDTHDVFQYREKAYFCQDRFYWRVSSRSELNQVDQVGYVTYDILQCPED
T1 sequence (P78536 18-670): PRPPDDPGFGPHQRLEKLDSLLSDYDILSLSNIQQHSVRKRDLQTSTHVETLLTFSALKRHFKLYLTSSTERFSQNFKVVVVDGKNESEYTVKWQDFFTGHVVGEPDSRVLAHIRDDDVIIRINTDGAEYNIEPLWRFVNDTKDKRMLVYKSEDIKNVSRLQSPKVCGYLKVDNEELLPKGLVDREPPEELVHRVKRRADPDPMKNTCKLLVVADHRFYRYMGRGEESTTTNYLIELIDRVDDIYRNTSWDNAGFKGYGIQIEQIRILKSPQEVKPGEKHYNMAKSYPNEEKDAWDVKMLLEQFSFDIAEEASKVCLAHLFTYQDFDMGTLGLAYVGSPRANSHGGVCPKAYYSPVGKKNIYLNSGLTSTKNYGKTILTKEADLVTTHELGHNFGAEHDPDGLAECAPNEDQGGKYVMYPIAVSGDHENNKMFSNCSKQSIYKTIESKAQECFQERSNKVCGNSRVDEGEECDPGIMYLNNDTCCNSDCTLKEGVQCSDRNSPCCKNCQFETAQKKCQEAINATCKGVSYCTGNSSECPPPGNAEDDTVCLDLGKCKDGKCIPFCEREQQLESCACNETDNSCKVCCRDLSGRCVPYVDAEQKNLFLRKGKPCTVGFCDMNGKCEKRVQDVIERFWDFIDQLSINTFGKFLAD
T2 sequence (P39900 101-268): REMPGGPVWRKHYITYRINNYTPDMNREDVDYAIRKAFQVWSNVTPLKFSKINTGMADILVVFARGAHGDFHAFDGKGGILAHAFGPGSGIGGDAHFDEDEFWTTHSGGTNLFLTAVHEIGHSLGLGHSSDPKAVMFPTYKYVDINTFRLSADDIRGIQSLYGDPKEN
T8 sequence (P22894 100-262): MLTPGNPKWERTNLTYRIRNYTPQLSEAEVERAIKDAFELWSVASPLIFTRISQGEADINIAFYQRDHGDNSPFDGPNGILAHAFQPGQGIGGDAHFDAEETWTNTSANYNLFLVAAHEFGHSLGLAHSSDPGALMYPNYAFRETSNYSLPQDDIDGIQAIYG

Turning to `N#Cc1ccc(C2C(O)CCCc3cncn32)c(-c2ccccc2Cl)c1` (stereo not drawn) [CSN5i-1b], the IC50 on human ADAM17 was more than 100 µM; at human MMP12, more than 100 µM; at human MMP2, more than 100 µM; against human MMP13, more than 100 µM; against human MMP14, more than 100 µM; at CSN5, 1.1 ± 0.5 µM. Further, the IC50 on human MMP9, at human MMP8 and against Human AMSHLP was more than 100 µM each time.

As usually defined, the IC50 is the concentration needed to halve the response being measured. A higher IC50 goes with lower potency.
